# Experimental data published in publication PMC9719892, “Control of parallelized bioreactors II: probabilistic quantification of carboxylic acid reductase activity for bioprocess optimization” (Bioprocess and Biosystems Engineering, 2022).
# Molecular target: T1, NoCAR (Nocardia otitidiscaviarum, UniProt A0A378YSF8)
# T1 construct: gene lgrD_6; pETDuet, T7 promoter, co-expressed with E. coli pyrophosphatase (EcPPase, no chain) in E. coli K12 MG1655 RARE; whole cells; CAR class approx. 130 kDa
# T1 sequence (A0A378YSF8 1-1156): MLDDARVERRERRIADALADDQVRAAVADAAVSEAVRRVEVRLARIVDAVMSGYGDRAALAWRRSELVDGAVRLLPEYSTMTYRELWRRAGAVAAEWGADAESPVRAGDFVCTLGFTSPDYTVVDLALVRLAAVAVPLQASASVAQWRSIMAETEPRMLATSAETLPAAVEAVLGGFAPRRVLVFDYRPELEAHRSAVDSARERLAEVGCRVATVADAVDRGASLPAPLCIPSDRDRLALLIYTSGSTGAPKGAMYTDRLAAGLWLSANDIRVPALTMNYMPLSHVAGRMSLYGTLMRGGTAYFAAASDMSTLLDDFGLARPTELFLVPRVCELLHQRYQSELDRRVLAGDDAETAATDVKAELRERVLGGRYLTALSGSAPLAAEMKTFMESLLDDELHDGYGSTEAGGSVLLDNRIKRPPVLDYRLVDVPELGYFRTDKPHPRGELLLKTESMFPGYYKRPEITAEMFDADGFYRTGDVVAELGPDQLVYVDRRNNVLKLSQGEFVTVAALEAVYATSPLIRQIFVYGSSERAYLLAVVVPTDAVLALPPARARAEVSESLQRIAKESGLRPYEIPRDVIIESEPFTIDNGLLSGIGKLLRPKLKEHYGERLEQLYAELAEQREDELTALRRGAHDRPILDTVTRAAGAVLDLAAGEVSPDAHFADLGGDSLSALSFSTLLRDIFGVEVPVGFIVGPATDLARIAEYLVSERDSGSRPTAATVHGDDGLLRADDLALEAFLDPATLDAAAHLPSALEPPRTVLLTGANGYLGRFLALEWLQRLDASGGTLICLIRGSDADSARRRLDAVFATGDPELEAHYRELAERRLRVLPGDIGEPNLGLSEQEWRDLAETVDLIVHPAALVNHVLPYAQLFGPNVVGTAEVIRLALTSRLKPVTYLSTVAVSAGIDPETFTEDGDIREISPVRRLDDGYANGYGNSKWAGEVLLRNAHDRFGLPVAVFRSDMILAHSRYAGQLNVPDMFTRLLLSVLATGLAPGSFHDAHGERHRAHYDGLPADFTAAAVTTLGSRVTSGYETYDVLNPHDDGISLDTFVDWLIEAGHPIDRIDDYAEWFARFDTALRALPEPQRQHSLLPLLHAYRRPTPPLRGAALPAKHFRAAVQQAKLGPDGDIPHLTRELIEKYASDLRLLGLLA
# Assay: whole-cell biotransformation, ABAO assay of 3-hydroxybenzaldehyde at […] nm
# Format: cell-based
# Details: 2.5 mM substrate in PBS / minimal medium with glucose, growing E. coli cells, 35 °C; no added cofactor
structure (smiles),measurement,value
O=C(O)c1cccc(O)c1 [3-hydroxybenzoic acid],"whole-cell biotransformation, ABAO assay of 3-hydroxybenzaldehyde at 360 nm",The biotransformation consists of the conversion of 3-hydroxybenzoic acid to 3-hydroxybenzaldehyde
